These are literature values, as cited in patent US9630917B2, “Cysteamine prodrugs, pharmaceutical compositions thereof, and methods of use” (priority 2015, dated 2017).

For the series the following is noted: oral absorption; Smolin et al., Ped Res. 1988; 23, 616-620.

Consider `NCCS` [cysteamine], for which the absolute bioavailability result is “about 10%”.
